Results on 1 molecule are retold here after patent publication US20060052447A1, “Novel substituted arylhexadienoic acids and esters thereof which can be used for the treatment and prevention of diabetes, dyslipidaemia and atherosclerosis, pharmaceutical compositios comprising them and processes for the preparation of them” (Merck Patent GmbH, priority 2002, published 2006).

Common to all, as to format: cell-based
The target of assay [1] is T1, chimeric protein PPARα-Gal4 (Homo sapiens, UniProt Q07869).
T1 construct: expressed in transfected cells; host or cells: CV-1 cells (monkey kidney cells)
T1 sequence (Q07869 239-466 limits assumed): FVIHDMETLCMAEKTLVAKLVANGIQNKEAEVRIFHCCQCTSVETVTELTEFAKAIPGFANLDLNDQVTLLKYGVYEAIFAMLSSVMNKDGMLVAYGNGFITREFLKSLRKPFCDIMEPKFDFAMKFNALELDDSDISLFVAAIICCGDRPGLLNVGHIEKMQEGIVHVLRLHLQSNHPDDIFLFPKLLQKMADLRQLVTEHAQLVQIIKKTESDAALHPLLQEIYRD
Put plainly: PPAR activation, Gal4 chimera luciferase reporter in co-transfected CV-1 cells. Conditions: 50 μM; CV-1 cells (monkey kidney cells); 18 hours contact; relative to control cells without product. As to the method: (§1) The measurement of the PPAR activation was performed according to a technique described by Lehmann et al. (1995, J. Biol. Chem. 270: 12953-12956).
(§2) CV-1 cells (monkey kidney cells) are co-transfected with an expression vector for the chimeric proteins PPARα-Gal4 or PPARγ-Gal4 and with a “reporter” plasmid that allows the expression of the luciferase gene placed under the control of a promoter containing Gal4 response elements.
(§3) The cells are inoculated in 96-well microplates and co-transfected using a commercial reagent with the reporter plasmid (pG5-tk-pGL3) and the expression vector for the chimeric protein (PPARα-Gal4 or PPARγ-Gal4). After incubating for 4 hours, whole culture medium (comprising 10% foetal calf serum) is added to the wells. After 24 hours, the medium is removed and replaced by whole medium comprising the test products (50 μM final).
(§4) The products are left in contact with the cells for 18 hours. The cells are then lysed and the luciferase activity is measured using a luminometer. A PPAR activation factor can then be calculated by means of the activation of the expression of the reporter gene induced by the product (relative to the control cells that have not received any product).
For orientation: A reporter such as luciferase makes a cellular process visible.

In assay [2] the target is T2, chimeric protein PPARγ-Gal4 (Homo sapiens, UniProt P37231).
T2 construct: expressed in transfected cells; host or cells: CV-1 cells (monkey kidney cells)
T2 sequence (P37231 238-503 limits assumed): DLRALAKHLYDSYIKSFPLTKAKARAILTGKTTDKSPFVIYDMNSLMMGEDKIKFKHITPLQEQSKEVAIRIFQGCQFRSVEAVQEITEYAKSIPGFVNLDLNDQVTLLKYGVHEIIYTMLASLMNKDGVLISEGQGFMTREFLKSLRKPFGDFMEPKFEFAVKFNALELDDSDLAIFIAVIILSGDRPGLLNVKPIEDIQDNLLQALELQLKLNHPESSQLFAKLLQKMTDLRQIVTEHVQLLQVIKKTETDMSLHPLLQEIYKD
The description is as above. Conditions: 50 μM; CV-1 cells (monkey kidney cells); 18 hours contact; relative to control cells without product. As to the method:
as §1, §2, §3, §4

In assay [3] the target is T3, vector expressing Gal4 alone (Saccharomyces cerevisiae, UniProt P04386).
T3 construct: expressed in transfected cells; host or cells: CV-1 cells (monkey kidney cells)
Put plainly: Luciferase reporter control without PPAR ligand binding region in CV-1 cells. Conditions: absence of the binding region for the PPAR α or γ ligand (Gal4 alone). The text has this:
CV-1 cells (monkey kidney cells) are co-transfected with an expression vector for the chimeric proteins PPARα-Gal4 or PPARγ-Gal4 and with a “reporter” plasmid that allows the expression of the luciferase gene placed under the control of a promoter containing Gal4 response elements. The cells are inoculated in 96-well microplates and co-transfected using a commercial reagent with the reporter plasmid (pG5-tk-pGL3) and the expression vector for the chimeric protein (PPARα-Gal4 or PPARγ-Gal4). After incubating for 4 hours, whole culture medium (comprising 10% foetal calf serum) is added to the wells. After 24 hours, the medium is removed and replaced by whole medium comprising the test products (50 μM final). The products are left in contact with the cells for 18 hours. The cells are then lysed and the luciferase activity is measured using a luminometer. A PPAR activation factor can then be calculated by means of the activation of the expression of the reporter gene induced by the product (relative to the control cells that have not received any product). […] In the absence of the binding region for the PPAR α or γ ligand (vector expressing Gal4 alone), the luciferase activity measured in the presence of this product is zero.

Each structure is given as a SMILES string.

T3 sequence (P04386 1-147 limits assumed): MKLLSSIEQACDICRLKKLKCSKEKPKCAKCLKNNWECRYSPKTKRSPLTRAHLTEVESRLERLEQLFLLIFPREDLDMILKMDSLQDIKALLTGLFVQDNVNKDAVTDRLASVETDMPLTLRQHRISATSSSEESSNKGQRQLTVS

For `CCCC(C=CC(=O)c1cc(OC)ccc1OC)=CC(=O)OCC` [Example 12, ethyl 6-(2,5-dimethoxyphenyl)-6-oxo-3-propylhexa-2,4-dienoate], the “PPAR activation factor (activation of expression of the luciferase reporter gene)” value in assay [1] is on record as “seven”; in assay [2], “five”. In addition, in assay [3], the “luciferase activity measured in the presence of the product” value was “zero”.
